Assay results as given in patent US10517889B2, “Modulators of SMAD7 expression” (Ionis Pharmaceuticals, Inc., priority 2017, dated 2019).
Strand notation (5' to 3'): a small letter for the sugar, then the base; units joined by * are phosphorothioate-linked, units joined directly phosphodiester-linked; [ ] holds rarer units or linkages, { } end groups; capitals alone tell only the bases. k = constrained ethyl (cEt); [5mC] = 5-methylcytosine; d = 2'-deoxy (DNA)

System: human SMAD7 mRNA
Test: Antisense inhibition of human SMAD7 mRNA expression in Hep3B cells by 3-10-3 cEt gapmers, 10,000 nM, electroporation (Example 2)
Type: cell-based
Conditions: Hep3B cells, 10,000 nM antisense oligonucleotide, electroporation, approximately 24 hours, RT-PCR primer probe set RTS5062, relative to untreated control cells
Method in brief: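 Percent inhibition of SMAD7 mRNA, relative to untreated cells, after ~24 h exposure of electroporated Hep3B cells to 10,000 nM cEt gapmer; levels by qRT-PCR, corrected for total RNA.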

Substance	% Inhibition [%]
799876 (kG*k[5mC]*k[5mC]*dA*dG*dG*dG*d[5mC]*d[5mC]*dG*d[5mC]*dA*d[5mC]*kT*kG*kT; antisense) [compound 799876]	55
798858 (kG*kG*kT*dA*dA*d[5mC]*dT*dG*d[5mC]*dT*dG*d[5mC]*dG*kG*kT*kT; antisense) [compound 798858]	46

Same assay, conditions: Hep3B cells, electroporation with 10,000 nM antisense oligonucleotide, approximately 24 hours, RTS5062, percent inhibition of SMAD7 mRNA relative to untreated control cells

Substance	% Inhibition [%]
799741 (antisense kA*kG*kT*dT*dA*dT*d[5mC]*dA*d[5mC]*d[5mC]*d[5mC]*dT*dG*kT*kT*kT) [compound 799741]	32
799786 (kA*k[5mC]*kA*dG*dA*dA*dG*d[5mC]*dT*dG*d[5mC]*d[5mC]*d[5mC]*k[5mC]*kT*kG; antisense) [compound 799786]	0
799727 (antisense kT*kG*kA*d[5mC]*dA*dG*dT*dA*dG*dG*d[5mC]*dA*dG*kG*k[5mC]*kA) [compound 799727]	22
799682 (antisense kG*kG*kT*d[5mC]*d[5mC]*dA*dG*dG*dA*d[5mC]*dT*dG*dG*kT*k[5mC]*kT) [compound 799682]	55

Same assay, conditions: Hep3B cells, electroporation with 10,000 nM antisense oligonucleotide, approximately 24 hours, SMAD7 mRNA by RT-PCR (RTS5062), relative to untreated control cells

Substance	% Inhibition [%]
790680 (kG*kG*kT*dG*dA*dG*dT*dA*dA*d[5mC]*d[5mC]*dA*dG*k[5mC]*kT*kG; antisense) [compound 790680]	56
772572 (antisense kA*kT*k[5mC]*dT*dT*d[5mC]*d[5mC]*d[5mC]*dG*dT*dA*dA*dG*kA*kT*kT) [compound 772572]	0
772642 (kT*kA*k[5mC]*d[5mC]*dG*dG*d[5mC]*dT*dG*dT*dT*dG*dA*kA*kG*kA; antisense) [compound 772642]	0
799330 (kG*kG*kT*dA*dT*dG*d[5mC]*dA*d[5mC]*dA*d[5mC]*dT*d[5mC]*kT*k[5mC]*k[5mC]; antisense) [compound 799330]	45
790532 (kG*k[5mC]*kA*d[5mC]*dG*dG*dG*d[5mC]*dA*dG*d[5mC]*dT*dG*k[5mC]*kT*kG; antisense) [compound 790532]	0
798701 (antisense k[5mC]*kT*kT*d[5mC]*dT*d[5mC]*d[5mC]*d[5mC]*d[5mC]*dG*d[5mC]*dA*dG*k[5mC]*kT*k[5mC]) [compound 798701]	23
830039 (antisense kT*kT*k[5mC]*d[5mC]*dT*dA*dT*dT*dG*dG*d[5mC]*dT*dG*kA*kT*k[5mC]) [compound 830039]	51
830043 (kT*kT*kG*dG*d[5mC]*dA*dG*dG*dT*dT*dA*dA*dT*k[5mC]*kA*k[5mC]; antisense) [compound 830043]	45
799982 (k[5mC]*kA*k[5mC]*d[5mC]*dA*d[5mC]*dG*d[5mC]*d[5mC]*dT*d[5mC]*dG*d[5mC]*kT*kA*kA; antisense) [compound 799982]	0
790464 (kA*kG*k[5mC]*dG*dA*dA*d[5mC]*dA*dT*dG*dA*d[5mC]*d[5mC]*kT*k[5mC]*k[5mC]; antisense) [compound 790464]	58
798844 (kA*k[5mC]*k[5mC]*dT*dT*d[5mC]*dT*dG*d[5mC]*dA*d[5mC]*d[5mC]*dA*kG*k[5mC]*kT; antisense) [compound 798844]	30

Same assay, conditions: Hep3B cells, electroporation with 10,000 nM antisense oligonucleotide, approximately 24 hours, primer probe set RTS5062, relative to untreated control cells

Substance	% inhibition of SMAD7 mRNA expression [%]	% Inhibition [%]
799347 (kA*kA*kG*dG*dA*dG*dT*dT*dT*d[5mC]*dA*dG*dG*kG*kT*k[5mC]; antisense) [compound 799347]	59	
799136 (antisense k[5mC]*kT*kT*d[5mC]*dT*dT*dG*dG*dA*dG*dG*dG*dA*kA*kG*kG) [compound 799136]		3
799093 (antisense kG*kT*k[5mC]*dA*d[5mC]*d[5mC]*dA*dG*dG*dG*d[5mC]*dA*dG*kG*k[5mC]*kA) [compound 799093]		47
798731 (antisense kG*kG*kT*dG*dG*dT*dG*dA*d[5mC]*d[5mC]*dT*dT*dT*kG*kG*k[5mC]) [compound 798731]	43	
798938 (antisense kA*k[5mC]*k[5mC]*dA*dA*dA*dG*dA*dG*dT*dT*dT*dG*k[5mC]*kA*kT) [compound 798938]		15
799170 (antisense kT*k[5mC]*kA*dT*dT*dG*dA*dG*d[5mC]*dT*dA*dA*dG*kA*kA*k[5mC]) [compound 799170]	17	
799001 (antisense k[5mC]*kA*kG*d[5mC]*d[5mC]*dG*d[5mC]*dA*d[5mC]*dA*d[5mC]*dT*d[5mC]*kA*k[5mC]*kA) [compound 799001]		37
799090 (antisense kG*kT*kG*dA*dG*d[5mC]*dA*dA*dT*dA*d[5mC]*dT*dG*kT*kG*kA) [compound 799090]	49	
799181 (antisense kG*kT*kT*dA*dG*dA*dA*dA*dA*dA*dT*dA*dG*k[5mC]*kT*kT) [compound 799181]		37
799465 (antisense kA*kG*k[5mC]*dT*d[5mC]*dT*dA*dG*dG*d[5mC]*d[5mC]*dA*d[5mC]*kT*k[5mC]*k[5mC]) [compound 799465]	64	

Same assay, conditions: Hep3B cells, electroporation, 10,000 nM antisense oligonucleotide, approximately 24 hours, RTS5062, relative to untreated control cells

Substance	% inhibition of SMAD7 mRNA expression [%]
799555 (kT*kA*k[5mC]*d[5mC]*d[5mC]*d[5mC]*dG*dT*dG*d[5mC]*d[5mC]*dT*dG*kT*k[5mC]*kA; antisense) [compound 799555]	51
799798 (kT*k[5mC]*k[5mC]*d[5mC]*dA*d[5mC]*dT*dT*d[5mC]*dT*d[5mC]*d[5mC]*dT*k[5mC]*kT*kG; antisense) [compound 799798]	50
799523 (antisense kG*kG*k[5mC]*dA*dG*dA*dA*dG*dG*d[5mC]*dT*d[5mC]*dT*k[5mC]*kT*k[5mC]) [compound 799523]	28
799635 (kA*k[5mC]*kA*dG*dA*d[5mC]*dT*dG*d[5mC]*d[5mC]*dA*dA*dA*kT*k[5mC]*kA; antisense) [compound 799635]	28
799655 (antisense kT*kG*k[5mC]*dA*dG*d[5mC]*dT*dG*dA*dA*dT*dA*dA*k[5mC]*k[5mC]*kT) [compound 799655]	47
799286 (antisense kG*k[5mC]*kT*d[5mC]*dA*dG*dG*d[5mC]*dT*dT*d[5mC]*dA*d[5mC]*kT*kG*k[5mC]) [compound 799286]	0

Same assay, conditions: Hep3B cells, electroporation, 10,000 nM, approximately 24 hours; 3-10-3 cEt gapmers targeting SEQ ID NO: 3 and 4

Substance	% inhibition of SMAD7 mRNA expression [%]
799268 (antisense kT*k[5mC]*k[5mC]*dA*dG*dT*dT*d[5mC]*dG*dG*d[5mC]*d[5mC]*dT*kT*k[5mC]*k[5mC]) [compound 799268]	24

Same assay, conditions: SMAD7 mRNA, Hep3B cells, 10,000 nM antisense oligonucleotide, electroporation, approximately 24 hours, primer probe set RTS5062, relative to untreated control cells

Substance	% Inhibition [%]
829786 (antisense kG*kA*kA*dT*dG*d[5mC]*d[5mC]*dT*dG*dA*dG*dA*dT*k[5mC]*k[5mC]*kG) [compound 829786]	56
829748 (antisense k[5mC]*kT*k[5mC]*dG*d[5mC]*d[5mC]*dG*d[5mC]*d[5mC]*dG*dG*dG*d[5mC]*kG*k[5mC]*kA) [compound 829748]	43

Same assay, conditions: SMAD7 mRNA, Hep3B cells, electroporation with 10,000 nM antisense oligonucleotide, approximately 24 hours, primer probe set RTS5062, relative to untreated control cells

Substance	% Inhibition [%]
829925 (kA*kT*kG*d[5mC]*dT*d[5mC]*dA*dT*dT*dG*dA*dG*d[5mC]*kT*kA*kA; antisense) [compound 829925]	37
829905 (antisense k[5mC]*kG*kG*d[5mC]*dT*dG*dT*dT*dG*dA*dA*dG*dA*kT*kG*kA) [compound 829905]	20
829910 (antisense kG*kA*kG*dT*dT*dT*dG*d[5mC]*dA*dT*dG*dA*dA*kA*kA*kG) [compound 829910]	49
